Assay results: patent US20240117005A1, “NOVEL BICYCLIC PEPTIDES” (THE COUNCIL OF THE QUEENSLAND INSTITUTE OF MEDICAL RESEARCH, priority 2021, published 2024)
“Also recorded” adds a separate entry of the source. No end group written: not given here. *: point of attachment. Myristyl = CCCCCCCCCCCCCC*

System: PD-L1-Me3 (PD-L1-PTM2)
Assay: High resolution digital pathology of PD-L1-Me3 (PDL1-PTM2) localisation
Format: cell-based, human
Conditions: for cytoplasmic expression of PDL1-PTM2 (PDL1-Me3): MDA-MB-231, vs vehicle control
Procedure: To examine the signature of CD8, CSV, EGFR, ABCB5, FOXQ1, commercial PD-L1-28-8, nuclear PD-L1, cytoplasmic PDL1 in MDA-MB-231 TNBC cells/TNBC brain cancer clone cells (untreated or treated with bicyclic inhibitors targeting nuclear PD-L1-PTM1). MDA-MB-231/MDA-MB-231-Br cells were permeabilised by incubating with 0.5% Triton X-100 for 15 min, blocked with 1% BSA in PBS and were probed with either CSV (Mouse host), CD8 (mouse host), EGFR (Rabbit host), ABCB5 (Goat Host), ALDH1A (Rabbit Host), NODAL (Goat Host), nuclear PDL1 (rabbit host), cytoplasmic PD-L1 (rabbit host) visualized with a donkey anti-rabbit AF 488, anti-mouse AF 568, donkey anti-goat 647. Cover slips were mounted on glass microscope slides with ProLong Glass Antifade reagent (Life Technologies). Protein targets were localised by digital pathology laser scanning microscopy. Single 0.5 μm sections were obtained using a ASI Digital pathology microscope using 100× oil immersion lens running ASI software. The final image was obtained by averaging four sequential images of the same section. Digital images were analyzed using automated ASI software (Applied Spectral Imaging, Carlsbad, CA) to determine the distribution and intensities automatically with automatic thresholding and background correction of the average nuclear fluorescence intensity (NFI), allowing for the specific targeting of expression of proteins of interest. Digital images were also analysed using ImageJ software (ImageJ, NIH, Bethesda, MD, USA) to determine the total cell fluorescence or cell surface only fluorescence for non-permeabilised cells. Digital images were analysed using ImageJ software (ImageJ, NIH, Bethesda, MD, USA) to determine either the Total Nuclear Fluorescent Intensity (TNFI), the Total Cytoplasmic Fluorescent Intensity (TCFI). ImageJ software with automatic thresholding and manual selection of regions of interest (ROIs) specific for cell nuclei was used to calculate the Pearson's co-efficient correlation (PCC) for each pair of antibodies. PCC values range from: −1=inverse of co-localisation, 0=no co-localisation, +1=perfect co-localisation. The Mann-Whitney nonparametric test (GraphPad Prism, GraphPad Software, San Diego, CA) was used to determine significant differences between datasets.
All breast cancer cell lines used were sourced from ATCC. MDA-MB-231 or MDB-MB-231-Br cell lines were maintained and cultured in DMEM (Invitrogen) supplemented with 10% FBS, 2 mM L-glutamine, and 1% PSN. MCF-7 cells were stimulated with 1.29 ng/mL phorbol 12-myristate 13-acetate (PMA) (Sigma-Aldrich) or 5 ng/ml recombinant TGF-β1 (R&D Systems) for 60 hours. For inhibitor studies, 2×10^5 cells were seeded in 2 mL complete media in 6 well plates and incubated overnight at 37° C./5% CO2. Cells were treated with PD-L1 bicyclic peptides targeting the nuclear axis PD-L1, HDAC2i or vehicle control. For qPCR analysis, at each time point, adherent cells were trypsinized, washed and cell pellets stored at −80° C. until further processing. For microscopy studies, 4×10^4 cells were seeded on coverslips and treated with inhibitors as described above. At each timepoint, coverslips were washed, fixed with 3.7% formaldehyde (Sigma) and stored at 4° C. until processing. […]
MDA-MB-231 were permeabilized and treated with either vehicle control or, DL-2 (current stock), or linear PDL1 (PDL1-L1). […] Significant differences are calculated as one-way ANOVA Kruskal-Wallis test comparison to vehicle control. […]

## LTFIFRLRKGRMMDVKK (Myristyl-LTFIFRLRKGRMMDVKK) [PDL1-L1, Myristyl- linear peptide, prototype]
Listed as linear PDL1 peptide
  cytoplasmic expression of PDL1-PTM2 (PDL1-Me3): not able to induce any increased expression; also recorded: did not induce any increased expression

## CCCCCCCCCCCCCC(=O)NC(C)C(=O)NC1CSCc2cc3cc(c2)CSC[C@H](NC(=O)[C@H](Cc2ccccc2)NC(=O)[C@H](C(C)CC)NC(=O)[C@H](Cc2ccccc2)NC(=O)[C@H]([C@@H](C)O)NC(=O)C(CC(C)C)NC1=O)C(=O)N[C@@H](CCCNC(C)=N)C(=O)N[C@@H](CC(C)C)C(=O)N[C@@H](CCCNC(=N)N)C(=O)N[C@@H](CCCCN)C(=O)NCC(=O)N[C@@H](CCCNC(=N)N)C(=O)NC(C(=O)N[C@@H](CCSC)C(=O)NC(CCSC)C(=O)N[C@@H](CC(=O)O)C(=O)NC(C(=O)N[C@@H](CCCCN)C(=O)NC(CCCCN)C(=O)O)C(C)C)CSC3 (mixture of isomers) [DL-2]
  cytoplasmic expression of PDL1-PTM2 (PDL1-Me3): induce increased cytoplasmic expression
non-permeabilized MDA-MB-231 cells
  expression of cell surface PD-L1-Me3: significant upregulation
Permeabilized MDA-MB-231 cells
  cytoplasmic/cell surface PD-L1-Me3: significantly upregulating
  expression of nuclear PD-L1-Me3: abrogating
